{
  "source": "patent US4609640A",
  "about": "“Preparation having excellent absorption property” (priority 1981, dated 1986)",
  "settings": "rat, in vivo",
  "protocol": "Subsequently, these samples were administered to Wistar-strain rats as shown below and quantities of Cephalothin disappeared by absorption were measured.\nIn the experiment, Wistar-strain male rats, weighing 250 to 300 g, were narcotized with pentobarbital (50 mg/kg) and thereafter subjected to hypoabdominal incision for a first cannulation at a position about 1.5 cm from the anus and also another cannulation at a position 5 cm above the first cannulation. Subsequently, the rectum was internally washed with about 20 ml of isotonic sodium chloride solution kept at 38° C., and each sample was circulated at a flow rate of 2 ml/minute for 5 minutes to make the concentration in the system constant. Then, 6 ml of each sample was circulated at a flow rate of 2 ml/minute, and samples each of 0.05 ml were collected at intervals of 10 minutes. Each sample was diluted and the quantity of Cephalothin disappeared was determined by UV-spectrophotometer or high-speed liquid chromatography.",
  "data": [
    {"substance": "pectinic acid", "values": [
      {"measurement": "absorption of Cephalothin", "result": "improves remarkably absorption of Cephalothin"},
      {"measurement": "absorption of Cephalothin under hyper tonic conditions", "result": "further improvement"}
    ]}
  ]
}
